# Counter-ions that a name gives are not always drawn.
# Experiments:
# [1] = L-cystine crystallization inhibition assay (metastable supersaturated L-cystine solution; L-cystine concentration by fluorescence or cyanide-nitroprusside colorimetric assay); settings: for Ratio (improvement in potency over the control): footnote names L-cystine dimethylester (CDME) as control, LH708 = 1.00; for EC50: test compound in L-cystine supersaturated solution (~3 mM), 25° C. for 72 h, read-out: EC50 (Aqueous Solubility of L-Cystine)
# Description: Example 21 Preparation of the Metastable Supersaturated Solution of L-Cystine and the Cystallizaiton Inhibition Assay
# For the preparation of L-cystine supersaturated solution 70 mg of L-cystine was dissolved in 100 mL of Millipore water (˜3 mM) under reflux at 120° C. for 30 min until the L-cystine was completely dissolved. The supersaturated solution was then allowed to cool slowly with stirring until the oil bath temperature reached 40° C. take about 70 min depending on the lab atmosphere. To determine the L-cystine concentration all test compounds were dissolved in water to form 10 mM stock solution. Five uL of each solution was added to 495 uL L-cystine supersaturated solution. The mixtures were allowed to stand at 25° C. for 72 h. At the end of incubation, the mixtures were centrifuged at 13,000 rpm for 5 min and the supernatants were diluted 10-fold for concentration measurement. To construct the standard curves L-Cystine (2.1 mg) was dissolved in 0.1 M Na2CO3 solution (9 mL) to form a 1 mM solution as a stock solution. Then, 50 uL L-cystine stock solution was diluted to 0.6 mM with 0.1 M Na2CO3 ([…]) solution and to 0.4, 0.2, 0.1, 0.05 mM solution using Millipore water 75, 200, 450 and 950 uL, respectively.
# Fluorescence Assay for the Determination of L-Cystine Concentration
# 10 μL of each L-cystine solutions or test compound diluted mixtures, 100 μL of DTT solution (12.5 mM) in 0.1 M dibasic sodium phosphate solution (1:9), were mixed at r.t. for 10 min, before the addition of 10 μL of iodoacetic acid (100 mM) and continued incubation at r.t. for an additional 15 min. This was then followed by the addition of 20 μL of OPA (100 mM in methanol)/NBC (100 mM in methanol) (1:1). The derivatization was allowed to proceed for 3 min before 3×40 μL of the mixture were placed in a 384-well plate and read at Ex 355 nm/Em 460 nm. The standard curve was repeated for each set of experiments and used to calculate the concentration of L-cystine in each sample.
# Cyanide-Nitroprusside Colorimetric Assay for the Determination of L-Cystine Concentration
# 3×40 μL of each L-cystine solutions or test compound diluted mixtures were placed in a 96-well plate (black, clear bottom). 80 μL of aqueous solution of potassium cyanide (30% w/v) in PBS (pH=7.4) (1:7) was added to each well then the plate was left to shake at 550 rpm for 25 min. 10 μL of aqueous solution of sodium nitroprusside (20% w/v) was added to each well using automated dispenser then the plate was centrifuged immediately at 1500 rpm for 20 sec. Then the UV absorbance was measured at 530 nm using Victor 3 V plate reader. The standard curve was repeated for each plate and used to calculate the concentration of L-cystine in each sample.
# [2] = tested on: cell culture; settings: cell culture experiments; cited from earlier work
# [3] = tested on: rats; settings: cited from earlier work
# [4] = in water; cited from earlier work
SMILES,Ratio (improvement in potency over the control) [1],EC50 [1],Concentration causing loss of cell viability [2],Dosage demonstrating adverse effects [3],Concentration at which crystallization of L-cystine is almost completely inhibited [4]
"N[C@@H](CSSC[C@H](N)C(=O)NCCN1CCCC1)C(=O)NCCN1CCCC1 [LH1735, L-Cystine bis(N′-pyrrolidinoethyleneamide) tetrahydrochloride]",0.37,116 ± 6.1 nM,,,
"N[C@@H](CSSC[C@H](N)C(=O)N1CCCC12CCNCC2)C(=O)N1CCCC12CCNCC2 [LH1754, L-Cystine bis(1,8-Diazaspiro[4.5]decan-1-yl) tetrahydrochloride]",0.36,120 ± 13 nM,,,
"N[C@@H](CSSC[C@H](N)C(=O)NCCN1CCOCC1)C(=O)NCCN1CCOCC1 [LH1738, L-Cystine bis(N′-morpholinoethyleneamide) tetrahydrochloride]",0.54,79.7 ± 7.7 nM,,,
"N[C@@H](CSSC[C@H](N)C(=O)NCCCN1CCCC1)C(=O)NCCCN1CCCC1 [LH1740, L-Cystine bis(1′-pyrrolidine-3′-aminopropaneamide) tetrahydrochloride]",0.26,163 ± 12.5 nM,,,
"CN(C)C1CCN(C(=O)[C@@H](N)CSSC[C@H](N)C(=O)N2CCC(N(C)C)CC2)CC1 [LH1751, L-Cystine bis(4′-(dimethylamino)-piperidineamide) tetrahydrochloride]",0.84,51.2 ± 3.7 nM,,,
"N[C@@H](CSSC[C@H](N)C(=O)N1CCN(C2CCCC2)CC1)C(=O)N1CCN(C2CCCC2)CC1 [LH1731, L-Cystine bis(N′-cyclopentylpiperazide) tetrahydrochloride]",1.08,39.5 ± 1.3 nM,,,
N[C@@H](CSSC[C@H](N)C(=O)N1CCN(c2ccccc2)CC1)C(=O)N1CCN(c2ccccc2)CC1 [LH1732],0.09,500 ± 26.5 nM,,,
"CN(C)CCCNC(=O)[C@@H](N)CSSC[C@H](N)C(=O)NCCCN(C)C [LH1739, L-Cystine bis (N′,N′-dimethyl-1′,3′-diaminopropaneamide) tetrahydrochloride]",0.37,114 ± 9.4 nM,,,
"CN1CCN(C(=O)[C@@H](N)CSSC[C@H](N)C(=O)N2CCN(C)CC2)CC1 [LH708, reference compound]",1.00,42.8 ± 0.7 nM,,,
"CC1(C)CNCCN1C(=O)[C@@H](N)CSSC[C@H](N)C(=O)N1CCNCC1(C)C [LH1733, L-Cystine bis(2′,2′-dimethylpiperazide) tetrahydrochloride]",0.40,108 ± 3.1 nM,,,
"COC(=O)[C@@H](N)CSSC[C@H](N)C(=O)OC [CDME, L-cystine dimethylester]",,,approximately 1 mM,approximately 500 mg/kg per day,above 2 mg/L
"N[C@@H](CSSC[C@H](N)C(=O)N1CCC2(CCCN2)CC1)C(=O)N1CCC2(CCCN2)CC1 [LH1753, L-Cystine bis(1,8-Diazaspiro[4.5]decan-8-yl) tetrahydrochloride]",1.70,25.1 ± 2.4 nM,,,
"N[C@@H](CSSC[C@H](N)C(=O)NCCCN1CCOCC1)C(=O)NCCCN1CCOCC1 [LH1741, L-Cystine bis (1′-morpholine-3′-aminopropaneamide) tetrahydrochloride]",0.27,160 ± 10.6 nM,,,
"N[C@@H](CSSC[C@H](N)C(=O)N1CCN(C2CC2)CC1)C(=O)N1CCN(C2CC2)CC1 [LH1730, L-Cystine bis(N′-cyclopropylpiperazide) tetrahydrochloride]",0.62,68.8 ± 4.1 nM,,,
"CN(C)CCNC(=O)[C@@H](N)CSSC[C@H](N)C(=O)NCCN(C)C [LH1734, L-Cystine bis (N′,N′-dimethylethyleneamide) tetrahydrochloride]",0.26,163 ± 10.8 nM,,,
"N[C@@H](CSSC[C@H](N)C(=O)N1CCC(N2CCCC2)CC1)C(=O)N1CCC(N2CCCC2)CC1 [LH1752, L-Cystine bis(4′-(1″-Pyrrolidinyl)piperidine) tetrahydrochloride]",1.17,36.5 ± 1.6 nM,,,
"CC(C)(C)N1CCN(C(=O)[C@@H](N)CSSC[C@H](N)C(=O)N2CCN(C(C)(C)C)CC2)CC1 [LH1729, L-Cystine bis(N′-tert-butylpiperazide) tetrahydrochloride]",1.34,32 ± 2.5 nM,,,
"N[C@@H](CSSC[C@H](N)C(=O)N1CCNCC1)C(=O)N1CCNCC1 [LH1726, L-Cystine bispiperazide tetrahydrochloride]",0.81,52.6 ± 0.8 nM,,,
"N[C@@H](CSSC[C@H](N)C(=O)NCCN1CCCCC1)C(=O)NCCN1CCCCC1 [LH1737, L-Cystine bis(N′-piperidinoethyleneamide) tetrahydrochloride]",0.30,143 ± 9.8 nM,,,

# Reference: patent US12486241B2, “Cystine diamide analogs for cystinuria” (Rutgers, The State University of New Jersey, priority 2019, dated 2025)
